Source: PubChem BioAssay (NCI)
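Interpolation was linear, between the two tested concentrations surrounding the appropriate level; five concentrations were tested over 48 hours in 96-well plates. Definition used: TGI = concentration required for complete inhibition of growth.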

What was measured:
Assay in all cases: NCI-60 cell line screen, 48 h
[1] = system: SNB-19 CNS
[2] = system: NCI-H226 lung
[3] = system: IGROV1 ovarian
[4] = system: K-562 leukemia
[5] = system: NCI/ADR-RES ovarian
[6] = system: HOP-92 NSCLC
[7] = system: OVCAR-8 ovarian
[8] = system: MCF7 breast
[9] = system: MALME-3M melanoma
[10] = system: SF-539 CNS
[11] = system: HCT-116 colon
[12] = system: SK-MEL-28 melanoma
[13] = system: NCI-H522 lung
[14] = system: EKVX NSCLC
[15] = system: OVCAR-4 ovarian
[16] = system: ACHN renal
[17] = system: CAKI-1 renal
[18] = system: M14 melanoma
[19] = system: HCT-15 colon
[20] = system: MDA-MB-231 breast

Row | Structure (SMILES) | TGI [1] [µM] | TGI [2] [µM] | TGI [3] [µM] | TGI [4] [µM] | TGI [5] [µM] | TGI [6] [µM] | TGI [7] [µM] | TGI [8] [µM] | TGI [9] [µM] | TGI [10] [µM] | TGI [11] [µM] | TGI [12] [µM] | TGI [13] [µM] | TGI [14] [µM] | TGI [15] [µM] | TGI [16] [µM] | TGI [17] [µM] | TGI [18] [µM] | TGI [19] [µM] | TGI [20] [µM]
1 | C=CCNC1=C2C[C@@H](C)C[C@H](OC)[C@H](O)[C@@H](C)/C=C(\C)[C@H](OC(N)=O)[C@@H](OC)/C=C\C=C(/C)C(=O)NC(=CC1=O)C2=O | 62.2 | 28.9 | 15.1 | 29.7 | 57.3 | 15.9 | 46 | 16 | 3.39 | 9.5 | 26.1 | 32.5 | 22.3 | 31.4 | 26.4 | 32.2 | 38 | 17 | 24.5 | 23.6
2 | CC(=O)Oc1c2ccsc2c(OC(C)=O)c2ccsc12 | 3.17 | 5.07 | 3.5 | > 100 | 1.23 | 2.75 | 1.22 | 2.31 | 0.889 | 0.913 | 2.21 | 1.24 | 1.15 | 3.63 | 1.73 | 2.28 | 3.66 | 0.94 | 1.74 | 6.17
3 | CO[C@@]12C[C@@H](C)[C@]34O[C@H]3C[C@]3(C)O[C@]43CC1=C(C)C(=O)O2 | > 100 | > 100 | > 100 | > 100 | > 100 | > 100 | > 100 | > 100 | > 100 | > 100 | > 100 | > 100 | > 100 | > 100 | > 100 | > 100 | > 100 | > 100 | > 100 | > 100
4 | COC(=O)c1cc(O)c(O)c(O)c1-c1c(O)c(O)c(O)c(SC[C@H](NC(=O)OCc2ccccc2)C(=O)OCc2ccccc2)c1C(=O)OC | > 100 | 48.2 | 84.2 | 70.2 | > 100 | > 100 | 52.7 | 43.1 | > 100 | 73 | 35.7 | > 100 | 59.3 | 50.8 | 89.9 | 61.1 | 35.2 | 36.8 | > 100 | 39
5 | Cc1ccc(S(=O)(=O)N/N=C2\CCC3(O)CC2(C)CCC2C3CC2(C)C)cc1 (stereo not given) | > 100 | 89.5 | > 100 | > 100 | > 100 | > 100 | > 100 | > 100 | > 100 | > 100 | > 100 | > 100 | 52.9 | > 100 | > 100 | > 100 | > 100 | > 100 | > 100 | > 100
6 | O=C1CCC2c3ccccc3NCN12 (stereo not given) | > 100 | > 100 | > 100 | > 100 | > 100 | > 100 | > 100 | > 100 | > 100 | > 100 | > 100 | > 100 | > 100 | > 100 | > 100 | > 100 | > 100 | > 100 | > 100 | > 100
7 | CN(/N=C/c1ccccn1)C1=NCCCN1 | > 100 | > 100 | > 100 | > 100 | > 100 | > 100 | > 100 | > 100 | > 100 | > 100 | > 100 | > 100 | > 100 | > 100 | > 100 | > 100 | > 100 | > 100 | > 100 | > 100
8 | c1ccc2c(c1)c1c3c(c4c(n32)=NCCN4)CCC1 | > 100 | 80.9 | > 100 | > 100 | 99.7 | 88 | > 100 | 98.2 | > 100 | > 100 | > 100 | > 100 | 61.2 | > 100 | > 100 | > 100 | > 100 | > 100 | > 100 | 98.9
9 | O=CC1C(Cl)=Nc2nc3ccccc3n2C1c1ccccc1 (stereo not given) | > 100 | 38.1 | 43.8 | 37.3 | 65.6 | 25.5 | 52.9 | 42.7 | 52.5 | 34 | 70.5 | 30.3 | 27.3 | 64.6 | 44 | 33.3 | 46.6 | 64.6 | 30.9 | 38.6
10 | CCOC(=O)/C(C(=S)NCc1ccccc1)=C(/N)N1CCCC1 | > 100 | > 100 | > 100 | > 100 | > 100 | > 100 | > 100 | > 100 | > 100 | > 100 | > 100 | > 100 | > 100 | > 100 | > 100 | > 100 | > 100 | > 100 | > 100 | > 100
11 | CN(C)CCCNC(=O)c1cc(NS(=O)(=O)c2ccc3c(c2)C(=O)c2ccccc2C3=O)cn1C | 39.6 | 42.5 | 75.1 | > 100 | > 100 | > 100 | > 100 | 46.4 | 18.7 | 75.6 | > 100 | 50.8 | 52.5 | > 100 | 36.8 | 49.5 | > 100 | 62.8 | > 100 | 85.5
12 | CCOC(=O)CCC(NC(=O)c1ccc(Oc2nc3c(N)cc(C(F)(F)F)cc3nc2-c2ccccc2)cc1)C(=O)OCC (stereo not given) | > 80.9 | > 55.8 | > 100 | > 100 | > 100 | > 100 | > 80.7 | > 100 | 91.9 | 8.48 | > 25.2 | > 100 | 45.4 | > 100 | > 100 | > 69.6 | 8.91 | > 100 | > 100 | > 96.1
13 | CCS(=O)c1c2cc(OC)ccc2nc2ccc(OC)cc12 (stereo not given) | 45.4 | 47.8 | 10 | 5.81 | 44.6 | > 53.1 | 15.5 | > 100 | 12.6 | > 59 | 7.52 | 23.4 | 3.97 | 32.3 | 36.1 | 13 | 9.44 | 37.6 | > 52.5 | 11.2
14 | COC1=C2CC(C)CC(OC)C(OC(=O)CN)[C@H](C)/C=C(\C)C(OC(N)=O)C(OC)/C=C\C=C(/C)C(=O)NC(=CC1=O)C2=O (stereo not given in full) | 20.7 | 24.7 | 1.62 | > 100 | 27.8 | 1.27 | 4.24 | 2.01 | 1.59 | 12.7 | 3.45 | 1.75 | 1.15 | 13.1 | 8.38 | 13.4 | 17 | 10.8 | 12.6 | 1.6
15 | COc1ccc2c(c1)C(OC)C1c3c(cc4c(c3-2)OCO4)CCN1C (stereo not given) | 19.3 | 9.09 | 14.8 | > 57.3 | 7.45 | 11.8 | 13.9 | 8.13 | 3.97 | 8.38 | > 71.7 | 19.8 | 6.23 | 24.3 | 10.3 | 8.03 | 7.32 | 7.84 | 10.2 | 9.59
16 | Nc1nc(Cl)c2ncn(Cc3cccc(CCl)c3)c2n1 | 20.6 | 26.9 | 12.3 | > 51 | 11.5 | 24.5 | 11.3 | > 31 | 18.1 | 20 | 4.05 | 23.9 | 7.03 | 21.2 | 5.07 | 12.4 | 5.37 | 12.9 | 5.58 | 27.6
17 | CN(C)c1ccc(/C=N/c2nc3cc4sc(/N=C/c5ccc(N(C)C)cc5)nc4cc3s2)cc1 | > 100 | > 100 | > 100 | > 100 | > 100 | > 100 | > 100 | > 100 | > 100 | > 100 | > 100 | > 100 | > 100 | > 100 | > 100 | > 100 | > 100 | > 100 | > 100 | > 100
18 | Cc1ccc(S(=O)(=O)N/N=C2\CCCCCCCCCCC2CN(C)C)cc1 (stereo not given) | 30.4 | 35.2 | 30.7 | 56.5 | 29.3 | 24.7 | 30.7 | 31 | 30.9 | 31.6 | 28.2 | 28.2 | 27.4 | 70 | 68.3 | 40.2 | 50.4 | 31.1 | 29 | 34
19 | COc1ccc(CNc2nc(NCc3ccc(OC)cc3)nc(NC3CCCC3)n2)cc1 | > 100 | > 55.8 | > 33.7 | > 24.7 | 13.4 | > 100 | 20 | 9.83 | > 100 | 11.4 | 10.1 | > 100 | > 19.9 | > 100 | > 100 | > 100 | > 84.1 | > 100 | > 20.6 | > 31.2
20 | CN(C)C(=S)C(Cl)(c1ccccc1)c1ccccc1 | > 100 | > 100 | > 100 | > 100 | > 100 | > 100 | > 100 | > 100 | > 100 | > 100 | > 100 | > 100 | > 100 | 75 | > 100 | > 100 | > 100 | > 100 | > 100 | > 100
21 | O=C1OCC(c2ccc(Cl)cc2)=C1Cl | > 100 | > 100 | 25.2 | 92.6 | 55.8 | 58.9 | 73.6 | 44.6 | 32.7 | > 100 | 28.3 | > 100 | 35.9 | > 100 | > 100 | > 100 | 88.4 | 41.8 | > 100 | 98.6
22 | CC/C(Cl)=N\OC(=O)Nc1ccc(OC)c(C)c1 | > 100 | 70.4 | 39.1 | > 91.2 | 37.5 | 5.69 | 39.2 | > 64.3 | 26.6 | 42 | 29.6 | 62 | 4.18 | 10.1 | 36.5 | 21.5 | 1.84 | 44.1 | 34.5 | > 88.6
23 | COC(=O)c1c(O)ccc2c1c1c(n2Cc2ccccc2OC)C(=O)c2ccccc2C1=O | 95.9 | 39.3 | 28.3 | 17.3 | 39.2 | 22.4 | 27.4 | 43.7 | 40.5 | 47.1 | 16.6 | 36.1 | 26.8 | 45 | 26.9 | 29.7 | 37.9 | 22.6 | 20 | 54.9
